Legend:
Format in all cases: cell-based, human
iPSCs = assay: Mesoderm induction of iPSCs: FOXF1 and IRX3 expression
Protocol: PSCs were cultured in monolayer on hESC-qualified Matrigel-coated plates (Corning) and expanded in NutriStem hPSC XF Medium (Stemgent) and passaged with ReLeSR passaging reagent (STEMCELL Technologies). For mesoderm induction (Day 0), PSC colonies was dissociated with TrypLE cell dissociation reagent (Thermofisher) and plated on Matrigel coated plates in NutriStem medium containing 10 μM Y-27632 Rho kinase inhibitor (Calbiochem). The following day (Day 1), NutriStem medium was replaced with STEMdiff Mesoderm Induction Medium (MIM) (STEMCELL Technologies) and changed each day until day 5.
Note: Only use Y-27632 stock solutions that have been resuspended in DMSO. […] Conduct Mesoderm induction of iPSC in a laminar flow cabinet. • 3. Expand cells in NutriStem hPSC XF Medium overnight and change 100% of the medium without Y-27632 every 24 hours in a laminar flow cabinet for cell culture. When changing media, tilt plate up and allow media to pool at the bottom of wells. Aspirate the pooled medium without touching the surface of the plate. Replace with medium warmed to room temperature by pipetting 2 ml down the side of the wells. Cell Passaging • 1. Expand cell colonies until they have reached 70-80% confluence in high-density areas of the wells. High-density accumulation can occur along the edges of the well as well as the middle. Cells permitted to reach high density will lose their potential for differentiation after multiple passages. • 2. Prior to cell passage, warm cell wash buffer and NutriStem hPSC XF Medium to room temperature. Conduct cell passage in a laminar flow cabinet. • 3. Aspirate NutriStem hPSC XF Medium from wells with vacuum aspirator and wash with PBS without calcium or magnesium. Remove PBS and add 1 ml of ReLeSR reagent to side of well. Agitate plate to allow ReLeSR reagent to spread evenly on the surface. • 4. Aspirate ReLeSR reagent with vacuum aspirator after 30 seconds, which will leave behind a thin film of liquid. Incubate plate at 37° C. for 5-8 minutes undisturbed. • 5. Add fresh NutriStem hPSC XF Medium to wells and gently remove the cell colonies from the plate. Check that most cells have been dislodged from the plate surface with a light microscope. If not, rewash with more medium as needed. • 6. Transfer cell colony suspension in NutriStem hPSC XF Medium to Matrigel coated culture plates for further expansion (see Cell plating and culture above). Generation of iPSC Derived MSCs Mesoderm Induction of iPSC • 1. When iPSCs have reached 70-80% confluence, they will need to be passaged as single cells rather than colonies prior to mesoderm induction (day 0). • 2. Prepare for passage by warming cell wash buffer and NutriStem hPSC XF medium to room temperature and add Y-27632 Rho kinase inhibitor to medium at a final concentration of 10 μM. […]

iPSC-beige adipocytes [1] = assay: Fatty acid uptake assay; conditions: adipocytes whitened 6 days without rosiglitazone
Protocol: Following washes, add secondary antibody diluted at a ratio of 1:1200 and incubate 2 hours at room temperature. • 5. Remove secondary antibody solution and wash 3 times with TBS with Tween 20 (5 minutes per wash). • 6. Develop membrane with Clarity™ Western ECL Substrate and detect using a Bio-Rad ChemiDoc Touch Imaging System. • 7. Quantitation of protein was performed using Image Lab software (Bio-Rad). Fatty Acid Uptake Assay Preparation • 1. Expand and grow iPSC-beige and whitened iPSC-beige adipocytes to full maturity in a 96 well plate (day 12) (see Generation of beige adipocytes above). To whiten iPSC-beige adipocytes for this assay, induce iPSC-MSCs for three days in the induction cocktail as described in the differentiation protocol (see Generation of beige adipocytes above). Following three days of induction, replace beige induction medium with DMEM containing 10% FBS and insulin ([…]). Change 100% of medium every 3 days until full maturity (day 12). • 2. On day 12, replace culture medium with DMEM containing 10% FBS. Change 100% of medium every 2 days for 6 days. • 3. Following 6 days of rest, remove culture medium and replace with […] of serum free DMEM containing 0.2% BSA. Incubate the plate at 37° C. in a 5% CO2 incubator for 1 hour. • 4. After 1 hour, add CL316,243 ([…]) to designated wells. Allow cells to incubate for 2 hours. • 5. […] Quantification and Statistical Analysis

iPSC-beige adipocytes [2] = assay: UCP1 qPCR after β3-adrenergic stimulation of iPSC-beige adipocytes
iPSC-beige adipocytes [3] = assay: Seahorse XF oxygen consumption after β3-adrenergic stimulation; conditions: adipocytes whitened 4 days without rosiglitazone, CL316,243 for 4 hr
FD-MSCs = assay: Beige adipogenic precursor markers in FD-MSCs (flow cytometry, immunostaining, qPCR); conditions: 2 days pretreatment
Protocol: All assays were performed between 7 and 15 passages. For osteocyte differentiation, mature MSCs were grown in 24 well culture plates to 100% confluency in MesenCult-ACF and induced to differentiate in OsteoLife Complete Osteogenesis Medium (Lifeline Cell Technology) for 21 days prior to staining with Lifeline Alizarin Red Stain to visualize calcium deposition. For chondrocyte differentiation. For beige adipogenic precursor generation, cells were grown in 24 well culture plates to 90% confluence and treated with 5 uM SB413542 (Sigma) and 10 nM human IL-4 (Peprotech) for 2 days. For beige adipogenic induction, adipogenic precursors are differentiated for 3 days with adipogenic medium consisting of T3 (2 nM), insulin (170 nM), rosiglitazone (1 μM), SB413542 (5 uM), IBMX (0.5 mM), dexamethasone (5 μM) and indomethacin (125 μM) in EGM-2 medium (Lonza) supplemented with the BulletKit minus FGF2 (modified from^33). Thereafter, cells are maintained in adipogenic medium without IBMX, dexamethasone and indomethacin. The medium was changed every 3 days and adipocytes were fully differentiated by 9-12 days as determined by lipid accumulation and peak expression of UCP1.
Cell Isolation, Expansion and Differentiation of Interscapular Brown Adipose Tissue Preadipocytes • 1. Prior to adipose cell isolation, warm DMEM, FBS and cell wash buffer to room temperature. • 2. In a laminar flow cabinet for cell culture, place 5 g of adipose tissue on a 100×20 mm dish. Suspend tissue in 1 mL of Adipose Tissue Dissociation Kit enzyme digest cocktail and finely mince with a razorblade. • 3. Transfer cell suspension slurry to a 5 mL polystyrene round bottom tube and add an additional 1.5 mL of enzyme digest cocktail to tube. • 4. Incubate tube at 37° C. on a rotating nutator for 30 minutes. During incubation period, briefly vortex sample for 5 s in 10-minute intervals. • 5. Transfer cells to a 15 mL tube and add 5 mL of DMEM. Filter cell suspension through a 100 μm strainer into a new 15 mL tube and centrifuge at 300 g for 5 minutes to form a pellet. • 6. Remove supernatant and leave behind […] of DMEM. […]

Cc1c[nH]c(-c2cnc(NCCNc3ccc(C#N)cn3)nc2-c2ccc(Cl)cc2Cl)n1 [CHIR]
FOXF1 protein compared to StemDiff MIM (iPSCs; 1.5 μM CHIR in combination with VEGF and BMP4): significant increase | expression of FOXF1 (qPCR) (iPSCs; CHIR raised to 5 μM in combination with BMP4 and VEGF): decrease

C[C@H](Cc1ccc2c(c1)OC(C(=O)[O-])(C(=O)[O-])O2)NC[C@H](O)c1cccc(Cl)c1.[Na+].[Na+] [CL316,243]
fatty acid (FA) uptake (iPSC-beige adipocytes [1]): increased | effect on UCP1 expression (iPSC-beige adipocytes [2]; during initial differentiation, in the presence of rosiglitazone): masked or inhibitory | UCP1 expression (iPSC-beige adipocytes [2]; during initial differentiation, without rosiglitazone): increased | UCP1 expression (iPSC-beige adipocytes [2]; mature iPSC-beige adipocytes, CL316,243 1 μM, 4 hr): increased expression | overall respiration and proton leak (iPSC-beige adipocytes [3]): increased overall respiration and proton leak

B1: IL-4: human IL-4 (Peprotech), used at 10 nM (protein, UniProt P05112 25-153, looked up)
Interleukin-4: HKCDITLQEIIKTLNSLTEQKTLCTELTVTDIFAASKNTTEKETFCRAATVLRQFYSHHEKDTRCLGATAQQFHRHKQLIRFLKRLDRNLWGLAGLNSCPVKEANQSTLENFLERLKTIMREKYSKCSS
transcription of beige adipogenic precursor markers PDGFRα and EBF2 (FD-MSCs): little effect
